Our source for the EC50 values is patent US9896441B2 (Lycera Corporation, priority 2014, dated 2018).

Molecules are shown by their SMILES. A value given as a limit tells only on which side of the number the result lay.

In assay [1] the target is T1, Gal4-RORγ-LBD (Homo sapiens, UniProt P51449).
T1 construct: expressed in transfected cells
T1 sequence (P51449 269-508 limits assumed): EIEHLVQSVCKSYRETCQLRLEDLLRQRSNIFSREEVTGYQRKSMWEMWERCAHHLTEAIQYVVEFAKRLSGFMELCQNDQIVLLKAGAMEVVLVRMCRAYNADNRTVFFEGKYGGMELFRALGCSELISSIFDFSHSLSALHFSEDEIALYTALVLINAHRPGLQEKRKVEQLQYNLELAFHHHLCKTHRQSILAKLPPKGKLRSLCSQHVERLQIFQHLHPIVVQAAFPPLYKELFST
Nature of the assay: Gal4-RORγ Luciferase Reporter Assay in HEK-293T Cells. Type of assay: cell-based. The following applies: HEK-293 cells, luciferase reporter, with ursolic acid. The method in brief: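 HEK-293 cells were co-transfected with Gal4-RORγ-LBD and a Gal4-luciferase reporter, then exposed overnight at 37 °C to compounds with […] ursolic acid present (0.2% DMSO). Luminescence was read with One-Glo after 10 min at RT, untreated signal was set as 100, and Max Response was taken as the upper plateau of a 4-parameter logistic fit.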
On the technique in general: A reporter such as luciferase makes a cellular process visible.

Assay [2] addresses T2, RORγ-LBD (Homo sapiens, UniProt P51449).
T2 construct: made in house; host or cells: SF9 cells (baculovirus); used as diluted lysate
T2 sequence (P51449 269-508 limits assumed): T1 sequence (P51449 269-508 limits assumed)
In words: RORγ-Ligand Binding Domain (LBD) TR-FRET Assay. Particulars: RORγ-LBD TR-FRET. Type of assay: biochemical. The method in brief: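 This TR-FRET coactivator assay pairs baculovirus-expressed His-RORγ-LBD (~3 nM final) with biotin-SRC1 LXXLL peptide at 200 nM final in pH 7.0 Tris/KCl/EDTA/DTT/BSA buffer.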

Regarding `COC(=O)CC[C@H]1CN(S(=O)(=O)c2ccc(F)c(Cl)c2)c2cc(/C=C(\C)c3c(F)cccc3Cl)ccc2O1` [Example 86F, (S,E)-methyl 3-(4-((3-chloro-4-fluorophenyl)sulfonyl)-6-(2-(2-chloro-6-fluorophenyl)prop-1-en-1-yl)-3,4-dihydro-2H-benzo-[b][1,4]oxazin-2-yl)propanoate], the EC50 in assay [1] and in assay [2] was less than 500 nM in each case.

On to `CCn1cc(S(=O)(=O)N2C[C@H](CCC(=O)O)Oc3ccc(/C=C(\C)c4c(F)cccc4Cl)cc32)c(Cl)n1` [Example 86G, (S,E)-3-(4-((3-chloro-1-ethyl-1H-pyrazol-4-yl)sulfonyl)-6-(2-(2-chloro-6-fluorophenyl)prop-1-en-1-yl)-3,4-dihydro-2H-benzo[b][1,4]oxazin-2-yl)propanoic acid], for which the EC50 in assay [1] was 500 to 5000 nM; in assay [2], less than 500 nM.

Consider `CCn1cc(S(=O)(=O)N2C[C@H](CCC(=O)OC)Oc3ccc(/C=C(\C)c4c(F)cccc4Cl)cc32)c(Cl)n1` [Example 86H, (S,E)-methyl 3-(4-((3-chloro-1-ethyl-1H-pyrazol-4-yl)sulfonyl)-6-(2-(2-chloro-6-fluorophenyl)prop-1-en-1-yl)-3,4-dihydro-2H-benzo[b][1,4]oxazin-2-yl)propanoate], for which the EC50 in assay [1] is 500 to 5000 nM; in assay [2] it was less than 500 nM.

On to `CCOc1nn(CC)cc1S(=O)(=O)N1C[C@H](CCC(=O)O)Oc2ccc(/C=C(\C)c3c(F)cccc3Cl)cc21` [Example 86I, (S,E)-3-(6-(2-(2-chloro-6-fluorophenyl)prop-1-en-1-yl)-4-((3-ethoxy-1-ethyl-1H-pyrazol-4-yl)sulfonyl)-3,4-dihydro-2H-benzo[b][1,4]oxazin-2-yl)propanoic acid], for which the results for the EC50 in assay [1] and in assay [2] were 500 to 5000 nM and less than 500 nM, respectively.

For the compound `CCOc1nn(CC)cc1S(=O)(=O)N1C[C@H](CCC(=O)OC)Oc2ccc(/C=C(\C)c3c(F)cccc3Cl)cc21` [Example 86J, (S,E)-methyl 3-(6-(2-(2-chloro-6-fluorophenyl)prop-1-en-1-yl)-4-((3-ethoxy-1-ethyl-1H-pyrazol-4-yl)sulfonyl)-3,4-dihydro-2H-benzo[b][1,4]oxazin-2-yl)propanoate], the EC50 in assay [1] and in assay [2] was less than 500 nM in each case.

`COc1nn2c(c1S(=O)(=O)N1C[C@H](CCC(=O)O)Oc3ccc(/C=C(\C)c4c(F)cccc4Cl)cc31)CCCC2` [Example 86K, (S,E)-3-(6-(2-(2-chloro-6-fluorophenyl)prop-1-en-1-yl)-4-((2-methoxy-4,5,6,7-tetrahydropyrazolo[1,5-a]pyridin-3-yl)sulfonyl)-3,4-dihydro-2H-benzo[b][1,4]oxazin-2-yl)propanoic acid]: the EC50 in assay [1] and in assay [2] was less than 500 nM each time.

As to `COC(=O)CC[C@H]1CN(S(=O)(=O)c2c(OC)nn3c2CCCC3)c2cc(/C=C(\C)c3c(F)cccc3Cl)ccc2O1` [Example 86L, (S,E)-methyl 3-(6-(2-(2-chloro-6-fluorophenyl)prop-1-en-1-yl)-4-((2-methoxy-4,5,6,7-tetrahydropyrazolo[1,5-a]pyridin-3-yl)-sulfonyl)-3,4-dihydro-2H-benzo[b][1,4]oxazin-2-yl)-propanoate], the EC50 in assay [1] and in assay [2] was less than 500 nM in each case.

For the compound `COc1cccc(S(=O)(=O)N2C[C@H](CCC(=O)O)Oc3ccc(/C=C(\C)c4c(F)cccc4Cl)cc32)c1` [Example 86M, (S,E)-3-(6-(2-(2-chloro-6-fluorophenyl)prop-1-en-1-yl)-4-((3-methoxyphenyl)sulfonyl)-3,4-dihydro-2H-benzo[b][1,4]oxazin-2-yl)propanoic acid], the concentration for a half-maximal effect (EC50) in assay [1] was 500 to 5000 nM; in assay [2], less than 500 nM.

Take `COC(=O)CC[C@H]1CN(S(=O)(=O)c2cccc(OC)c2)c2cc(/C=C(\C)c3c(F)cccc3Cl)ccc2O1` [Example 86N, (S,E)-methyl 3-(6-(2-(2-chloro-6-fluorophenyl)prop-1-en-1-yl)-4-((3-methoxyphenyl)sulfonyl)-3,4-dihydro-2H-benzo[b][1,4]oxazin-2-yl)propanoate]: the concentration for a half-maximal effect (EC50) in assay [1] and in assay [2] was less than 500 nM each time.

With `C/C(=C\c1ccc2c(c1)N(S(=O)(=O)c1cccc(OC(F)F)c1)C[C@H](CCC(=O)O)O2)c1c(F)cccc1Cl` [Example 86O, (S,E)-3-(6-(2-(2-chloro-6-fluorophenyl)prop-1-en-1-yl)-4-((3-(difluoromethoxy)phenyl)-sulfonyl)-3,4-dihydro-2H-benzo[b][1,4]oxazin-2-yl)propanoic acid], the EC50 in assay [1] was 500 to 5000 nM; in assay [2], less than 500 nM.

For the compound `COC(=O)CC[C@H]1CN(S(=O)(=O)c2cccc(OC(F)F)c2)c2cc(/C=C(\C)c3c(F)cccc3Cl)ccc2O1` [Example 86P, (S,E)-methyl 3-(6-(2-(2-chloro-6-fluorophenyl)prop-1-en-1-yl)-4-((3-(difluoromethoxy)phenyl)-sulfonyl)-3,4-dihydro-2H-benzo[b][1,4]oxazin-2-yl)propanoate], the EC50 in assay [1] is 500 to 5000 nM; in assay [2], less than 500 nM.

As for `C/C(=C\c1ccc2c(c1)N(S(=O)(=O)c1cccc(C(C)C)c1)C[C@H](CCC(=O)O)O2)c1c(F)cccc1Cl` [Example 86Q, (S,E)-3-(6-(2-(2-chloro-6-fluorophenyl)prop-1-en-1-yl)-4-((3-isopropylphenyl)sulfonyl)-3,4-dihydro-2H-benzo[b][1,4]oxazin-2-yl)propanoic acid], the EC50 in assay [1] and in assay [2] was less than 500 nM throughout.

In the case of `COC(=O)CC[C@H]1CN(S(=O)(=O)c2cccc(C(C)C)c2)c2cc(/C=C(\C)c3c(F)cccc3Cl)ccc2O1` [Example 86R, (S,E)-methyl 3-(6-(2-(2-chloro-6-fluorophenyl)prop-1-en-1-yl)-4-((3-isopropylphenyl)sulfonyl)-3,4-dihydro-2H-benzo[b][1,4]oxazin-2-yl)propanoate], the EC50 in assay [1] and in assay [2] was less than 500 nM in each case.

In the case of `C/C(=C\c1ccc2c(c1)N(S(=O)(=O)c1cccc(OC(F)(F)F)c1)C[C@H](CCC(=O)O)O2)c1c(F)cccc1Cl` [Example 86S, (S,E)-3-(6-(2-(2-chloro-6-fluorophenyl)prop-1-en-1-yl)-4-((3-(trifluoromethoxy)phenyl)-sulfonyl)-3,4-dihydro-2H-benzo[b][1,4]oxazin-2-yl)propanoic acid], the EC50 in assay [1] was 500 to 5000 nM; in assay [2], less than 500 nM.

For the compound `COC(=O)CC[C@H]1CN(S(=O)(=O)c2cccc(OC(F)(F)F)c2)c2cc(/C=C(\C)c3c(F)cccc3Cl)ccc2O1` [Example 86T, (S,E)-methyl 3-(6-(2-(2-chloro-6-fluorophenyl)prop-1-en-1-yl)-4-((3-(trifluoromethoxy)phenyl)-sulfonyl)-3,4-dihydro-2H-benzo[b][1,4]oxazin-2-yl)propanoate], the EC50 was 500 to 5000 nM in assay [1] and less than 500 nM in assay [2].

In the case of `C/C(=C\c1ccc2c(c1)N(S(=O)(=O)c1c(Cl)nc3sccn13)C[C@H](CCC(=O)O)O2)c1c(F)cccc1Cl` [Example 86U, (S,E)-3-(6-(2-(2-chloro-6-fluorophenyl)prop-1-en-1-yl)-4-((6-chloroimidazo[2,1-b]thiazol-5-yl)sulfonyl)-3,4-dihydro-2H-benzo[b][1,4]oxazin-2-yl)propanoic acid], the concentration giving a half-maximal response (EC50) was 500 to 5000 nM in assay [1] and less than 500 nM in assay [2].

Broadly, the EC50 is the concentration at which the effect is half-maximal. High values mean weaker potency, low ones greater potency.
